Source: patent US11376307B2, “Compositions and methods of treating cancer with glycomimetic peptides” (SUSAVION BIOSCIENCES, INC., priority 2018, dated 2022)
Positions of bridges follow the written chain, without caps; N, C: chain ends. Chains are numbered I, II in the order given.

Tests used:
recombinant rat CLEC10A = molecular target: T1, recombinant rat CLEC10A (Rattus norvegicus, UniProt P49301); test: Inhibition of binding of multivalent GalNAc-PAA
T1 construct: The extracellular domains of receptors, which were fused with the Fc domain of immunoglobulin IgG; purchased R&D Systems
T1 sequence (P49301 59-306 limits assumed): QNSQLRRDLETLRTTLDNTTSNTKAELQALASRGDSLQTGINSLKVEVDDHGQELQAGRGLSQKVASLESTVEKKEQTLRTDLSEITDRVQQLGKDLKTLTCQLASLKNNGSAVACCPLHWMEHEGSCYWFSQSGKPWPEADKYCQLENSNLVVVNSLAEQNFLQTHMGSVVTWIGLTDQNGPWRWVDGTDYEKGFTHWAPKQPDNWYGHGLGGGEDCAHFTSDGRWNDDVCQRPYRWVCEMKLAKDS
Experimental: (§1) FIGS. 3A-3D. sv6D as a mimetic of GalNAc. (FIG. 3A) Inhibition by sv6D of binding of multivalent GalNAc-PAA (GlycoTech Corp., Frederick, Md.) to recombinant rat CLEC10A and human ASGPR-1. The reaction mixture included approximately 200 pmoles of biotinylated GalNc-PAA and increasing concentrations of peptide. The figure includes average values from 3 independent experiments. (FIG. 3B) Biotinylated sv6D or GalNAc-PAA were incubated with rabbit antiserum raised against the 6D sequence (NQHTPR) (SEQ ID NO:1) conjugated to keyhole limpet hemocyanin (KLH). Binding was detected with streptavidin-peroxidase conjugate. Similar data were obtained in 2 experiments. (FIG. 3C) Inhibition by EGTA of binding of sv6D (pattern) or svL4 (solid) to CLEC10A and ASGPR-1, respectively. EGTA (1 mM) was added to the final concentrations indicated to assays. Retention of bound CLEC10A was determined by incubation with biotinylated anti-CLEC10A (goat IgG, R&D Systems) and detection with streptavidin-peroxidase conjugate (light grey circle). Similar data were obtained in 3 experiments. (FIG. 3D) Binding of svL4 and sv6D to human recombinant CLEC10A and ASGPR-1 as a function of concentration of peptide in the assay. The figure is representative of 4 separate assays.
(§2) To further determine whether sv6D interacts with the actual sugar binding site, the ability of sv6D to compete with GalNAc-PAA for binding was assayed.

human ASGPR-1 = molecular target: T2, human ASGPR-1 (Homo sapiens, UniProt P07306); test: Inhibition of binding of multivalent GalNAc-PAA; details: about 200 pmoles biotinylated GalNAc-PAA, increasing peptide
T2 construct: The extracellular domains of receptors, which were fused with the Fc domain of immunoglobulin IgG; purchased R&D Systems
T2 sequence (P07306 62-291 limits assumed): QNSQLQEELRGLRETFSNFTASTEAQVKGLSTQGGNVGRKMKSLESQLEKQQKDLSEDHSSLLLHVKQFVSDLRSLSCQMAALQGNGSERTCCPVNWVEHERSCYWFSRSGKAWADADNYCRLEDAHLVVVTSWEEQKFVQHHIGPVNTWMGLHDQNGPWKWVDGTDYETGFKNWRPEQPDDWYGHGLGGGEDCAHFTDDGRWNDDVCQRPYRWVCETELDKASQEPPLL
Experimental: as §1, §2

[1] = test system: ID8 ovarian cancer cell line; test: Murine model of ovarian cancer, sv6D and paclitaxel
Experimental: Combination study of sv6D and paclitaxel. (FIG. 8A) Female C57BL/6 mice were implanted with ID8 ovarian cancer cell line. […] Body weights of mice are shown as measured on day 58, after two weeks of alternate-day subcutaneous treatment with sv6D (0.1 nmol/g) or 3 intraperitoneal doses (days 45, 47 and 49) of 18 μg/g paclitaxel in cremophor. […] (FIG. 8B) Alternate-day injections of sv6D were initiated on day 50 with peptide alone or on day 100 to mice that were previously treated with paclitaxel between day 45 and 49. […] (FIG. 8C) Kaplan-Meier survival curves for mice treated with paclitaxel, sv6D or a combination of the two in which alternate-day subcutaneous injections of sv6D was started 50 days after paclitaxel treatment.
Cells of an ovarian epithelial cancer line, ID8 [110], were implanted into the peritoneal cavity of female C57BL/6 mice at a dose of 6×10^6 cells. All animals were weighed at least weekly throughout these studies. Accumulation of ascites was monitored by increase in body weight, and animals were euthanized when end-stage behavior was expressed. […] Kaplan-Meier survival curves were analyzed by the Mantel-Cox log-rank test.
A murine ovarian cancer cell line (ID8) was implanted into the peritoneal cavity of C57BL/6 female mice on day 0. […] Progression of the cancer was monitored by body weight of animals as an indication of ascites accumulation.

peritoneal immune cells = test: Expansion of peritoneal cells after subcutaneous injection, flow cytometry; assay type: in vivo, Balb/c mice; details: 24 h after a single s.c. injection, 1 nmol/g
Experimental: Flow Cytometry Healthy C57BL/6 male mice, 10 weeks old, were injected subcutaneously with peptides on alternate days. Peritoneal cells were isolated from mice 24 h after dosing by injecting ice cold PBS (containing 3% FBS) into the peritoneal cavity, gently massaging the abdomen, and then collecting the fluid, which was transferred into K2EDTA-treated tubes for evaluation of specific biomarkers. Cells from three mice in each group were pooled, counted and divided among FACS tubes (1×10^6 cells per tube). […]
Cells were incubated with the antibodies for 30 min at 4° C. in the dark. Following staining, the cells were washed two times with PBS/3% FBS and immediately analyzed with a MACSQuant flow cytometer (Miltenyi Biotech, Inc., San Diego, Calif.). […]
To examine whether increases occurred in mature immune cells, peritoneal cells from Balb/c and C57BL/6 mice were analyzed by flow cytometry after cells were stained with the markers listed in Table 1. […] Shown in FIGS. 7A-7D are results expressed as cell counts for F4/80 CD11b CD86 (mature, active macrophages); CD11c (DCs); CD11c CD86 (activated DCs); CD4 CD69 (activated T cells); CD8 CD69 (activated cytotoxic T cells); NK1.1 CD3^+ CD69 (activated NKT cells); NK1.1 CD3^− CD69 (activated NK cells); CD19 (B cells); and CD19 CD73 CD80 CD273 (memory B cells). […]

[2] = test system: monocytes in the peritoneal cavity; test: Response of peritoneal monocytes in RAG−/− mice; assay type: in vivo; details: mice lacking B and T cells
Experimental: To determine whether the target(s) for svL4 is located on lymphocytes, with subsequent cross-talk signaling to achieve activation of monocytes, an experiment was performed in which svL4 was injected into RAG^−/− mice, which lack activity of rag, the recombination activation gene. The ability to perform recombination to generate antigen-specific antibodies by V(D)J recombination is required for B and T cell precursors to produce functional antigen receptors on their surface, and without a functional rag gene these cells undergo apoptosis.

Substance | Inhibition of binding of GalNAc-PAA to CLEC10A (recombinant rat CLEC10A; about 200 pmoles biotinylated GalNAc-PAA, increasing peptide) | Avidity relative to multivalent GalNAc-PAA (recombinant rat CLEC10A; from competition experiment) | Inhibition of binding of GalNAc-PAA to ASGPR-1 (human ASGPR-1) | Median survival ([1]; paclitaxel days 45-49 followed by sv6D from day 100) [days] | Overall survival time ([1]; paclitaxel followed by sv6D) | Median survival ([1]; single agent, sv6D 0.1 nmol/g, control median end-stage day 122) | Weight gain at day 120 ([1]; sv6D alone initiated at day 45) | Further increase in body weight over 3 weeks ([1]; sv6D alternate days from day 100, 50 days after paclitaxel) | Body weight (ascites accumulation) after two weeks of treatment ([1]; treatment from day 45, sv6D 0.1 nmol/g s.c. alternate days, paclitaxel 18 μg/g i.p. x3) | Change in peritoneal macrophages, DCs, T cells and NK cells (peritoneal immune cells) | Response of peritoneal monocytes [2]
I: H-NQHTPRGGGSKK-NH2 / II: H-NQHTPRGGGSK / III: H-NQHTPRGGGS / IV: H-NQHTPRGGGS (amide I:11-IV:C, I:12-II:C, II:11-III:C) [sv6D] | inhibited | over an order of magnitude greater | inhibited | 169 | doubled | approximately 141 days | no significant weight gain for half the animals | completely suppressed further increases in weight | had not significantly increased |  | 
I: H-VQATQSNQHTPRGGGSKK-NH2 / II: H-VQATQSNQHTPRGGGSK / III: H-VQATQSNQHTPRGGGS / IV: H-VQATQSNQHTPRGGGS (amide I:17-IV:C, I:18-II:C, II:17-III:C) [svL4] |  |  |  |  |  |  |  |  |  | Several-fold increases | essentially the same as that in C57BL/6 mice
